The term Kd denotes the equilibrium constant for the complex coming apart.

Where a SMILES comes first, the peptide text is derived from it. Bridges are numbered along the chain shown (N, C = ends). [ ]: non-standard residue; d: D form. NMeW = CN[C@@H](Cc1c[nH]c2ccccc12)C(=O)O; NMeY = CN[C@@H](Cc1ccc(O)cc1)C(=O)O; Orn = NCCC[C@H](N)C(=O)O

The target in the first assay is transferrin receptor (hTfR) (Homo sapiens, UniProt P02786). Put plainly: Intermolecular interaction evaluation test between transferrin receptor (hTfR) and peptide by surface plasmon resonance (SPR). As to conditions: surface plasmon resonance, hTfR; read-out: KD value for hTfR by SPR (class symbol). The format is binding. An outline of the steps: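 Receptor was Ni-captured and EDC/NHS-fixed on an NTA chip; running buffer HEPES pH 8.0 with NaCl, Tween 20, BSA and 1.0% DMSO.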
Chain of transferrin receptor (hTfR) (P02786 whole entry): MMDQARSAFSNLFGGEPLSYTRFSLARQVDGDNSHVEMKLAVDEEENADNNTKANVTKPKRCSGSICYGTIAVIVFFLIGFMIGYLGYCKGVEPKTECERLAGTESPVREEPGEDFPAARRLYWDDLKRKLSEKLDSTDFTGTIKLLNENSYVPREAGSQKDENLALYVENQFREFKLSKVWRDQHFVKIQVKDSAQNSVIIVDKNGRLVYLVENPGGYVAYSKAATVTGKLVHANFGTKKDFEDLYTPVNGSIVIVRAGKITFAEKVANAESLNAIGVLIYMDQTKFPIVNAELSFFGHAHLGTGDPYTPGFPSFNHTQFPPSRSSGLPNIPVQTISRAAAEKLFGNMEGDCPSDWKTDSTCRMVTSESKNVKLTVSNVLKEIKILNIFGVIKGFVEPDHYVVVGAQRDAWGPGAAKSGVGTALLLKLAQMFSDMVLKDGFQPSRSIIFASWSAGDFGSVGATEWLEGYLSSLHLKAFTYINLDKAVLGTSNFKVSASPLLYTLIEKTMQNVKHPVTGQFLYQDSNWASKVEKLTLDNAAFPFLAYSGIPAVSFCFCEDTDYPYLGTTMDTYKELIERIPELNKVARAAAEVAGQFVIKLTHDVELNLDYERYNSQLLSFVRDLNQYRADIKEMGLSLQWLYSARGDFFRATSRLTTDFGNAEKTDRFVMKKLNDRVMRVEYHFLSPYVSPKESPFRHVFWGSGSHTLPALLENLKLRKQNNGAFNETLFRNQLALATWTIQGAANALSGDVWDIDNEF
(In SPR one partner is held on a chip, and binding of the other changes the refractive index at the surface.)
Consider `CC[C@H](C)[C@@H]1NC(=O)[C@H](Cc2ccc(OC)cc2)NC(=O)[C@H](Cc2ccc(O)cc2)NC(=O)[C@H](CC(N)=O)NC(=O)[C@H](Cc2c[nH]c3ccccc23)N(C)C(=O)[C@H](C(C)C)NC(=O)[C@H](Cc2cccc(Cl)c2)N(C)C(=O)[C@H](C(C)C)NC(=O)[C@H](C)NC(=O)CSC[C@@H](C(=O)NCC(=O)NCC(=O)NCC(=O)NCC(=O)N[C@@H](CO)C(=O)N[C@@H](CO)C(=O)N[C@@H](CS)C(N)=O)NC(=O)[C@H](Cc2ccc(O)cc2)N(C)C(=O)[C@H](Cc2ccccc2)NC(=O)[C@@H](CCCCN)NC(=O)[C@H](CCCNC(=N)N)NC(=O)[C@H]([C@@H](C)CC)NC1=O` [compound 407], for which the Kd was 0.001 to 0.1 µM.
Same read-out and setting: the value for `CC[C@H](C)[C@@H]1NC(=O)[C@H](Cc2ccc(O)cc2)NC(=O)[C@H](Cc2ccc(O)cc2)NC(=O)[C@H](CC(N)=O)NC(=O)[C@H](Cc2c[nH]c3ccccc23)NC(=O)[C@H](C(C)C)NC(=O)[C@H](Cc2ccccc2)NC(=O)[C@H](C(C)C)NC(=O)[C@H](C)NC(=O)CCC[C@@H](C(N)=O)NC(=O)[C@H](Cc2ccc(O)cc2)N(C)C(=O)[C@H](Cc2ccc(O)cc2)NC(=O)[C@H](CCCNC(=N)N)NC(=O)[C@H](CCCNC(=N)N)NC(=O)[C@H]([C@@H](C)CC)NC1=O` [compound 408] was 0.001 to 0.1 µM; that for `CC[C@H](C)[C@@H]1NC(=O)[C@H](Cc2ccc(O)cc2)NC(=O)[C@H](Cc2ccc(O)cc2)NC(=O)[C@H](CC(N)=O)NC(=O)[C@H](Cc2c[nH]c3ccccc23)N(C)C(=O)[C@H](C(C)C)NC(=O)[C@H](Cc2cccc(Cl)c2)N(C)C(=O)[C@@H]2CCCC(=O)NCCCC[C@H](NC(=O)[C@H]([C@@H](C)CC)NC1=O)C(=O)N[C@@H](CCCNC(=N)N)C(=O)N[C@@H](Cc1ccc(O)cc1)C(=O)N(C)[C@@H](Cc1ccc(O)cc1)C(=O)N[C@H](C(N)=O)CSCC(=O)N[C@@H](C)C(=O)N2` [compound 409] was 0.001 to 0.1 µM.
Still for that read-out and setting: next, `CC[C@H](C)[C@@H]1NC(=O)[C@H](Cc2ccc(O)cc2)NC(=O)[C@H](Cc2ccc(O)cc2)NC(=O)[C@H](CC(N)=O)NC(=O)[C@H](Cc2c[nH]c3ccccc23)N(C)C(=O)[C@H](C(C)C)NC(=O)[C@H](Cc2cccc(Cl)c2)N(C)C(=O)[C@@H]2CCCC(=O)NCCCCC[C@H](NC(=O)[C@H]([C@@H](C)CC)NC1=O)C(=O)N[C@@H](CCCNC(=N)N)C(=O)N[C@@H](Cc1ccc(O)cc1)C(=O)N(C)[C@@H](Cc1ccc(O)cc1)C(=O)N[C@H](C(N)=O)CSCC(=O)N[C@@H](C)C(=O)N2` [compound 410]: 0.001 to 0.1 µM.

Staying with this assay, now noted: surface plasmon resonance, peptide vs hTfR; read-out: KD value for hTfR by SPR (class symbol).
As to `CC[C@H](C)[C@@H]1NC(=O)[C@H](Cc2ccc(O)cc2)NC(=O)[C@H](Cc2ccc(O)cc2)NC(=O)[C@H](CC(N)=O)NC(=O)[C@H](Cc2c[nH]c3ccccc23)N(C)C(=O)[C@H](C(C)C)NC(=O)[C@H](Cc2cccc(Cl)c2)N(C)C(=O)[C@@H]2CCC(=O)NCCCCC[C@H](NC(=O)[C@H]([C@@H](C)CC)NC1=O)C(=O)N[C@@H](CCCNC(=N)N)C(=O)N[C@@H](Cc1ccc(O)cc1)C(=O)N(C)[C@@H](Cc1ccc(O)cc1)C(=O)N[C@H](C(N)=O)CSCC(=O)N[C@@H](C)C(=O)N2` [compound 411], the Kd was in the range of 0.001 to 0.1 µM.
Same read-out and setting: the value for `CC[C@H](C)[C@@H]1NC(=O)[C@H](Cc2ccc(O)cc2)NC(=O)[C@H](Cc2ccc(O)cc2)NC(=O)[C@H](CC(N)=O)NC(=O)[C@H](Cc2c[nH]c3ccccc23)N(C)C(=O)[C@H](C(C)C)NC(=O)[C@H](Cc2cccc(Cl)c2)N(C)C(=O)[C@@H]2CCC(=O)NCCCC[C@H](NC(=O)[C@H]([C@@H](C)CC)NC1=O)C(=O)N[C@@H](CCCNC(=N)N)C(=O)N[C@@H](Cc1ccc(O)cc1)C(=O)N(C)[C@@H](Cc1ccc(O)cc1)C(=O)N[C@H](C(N)=O)CSCC(=O)N[C@@H](C)C(=O)N2` [compound 412] was 0.001 to 0.1 µM; that for `CC[C@H](C)[C@@H]1NC(=O)[C@@H]2CCCCNC(=O)[C@H]3CCCN3C(=O)CC[C@H](NC(=O)[C@H](C(C)C)NC(=O)[C@H](C)NC(=O)CSC[C@@H](C(N)=O)NC(=O)[C@H](Cc3ccc(O)cc3)N(C)C(=O)[C@H](Cc3ccc(O)cc3)NC(=O)[C@H](CCCNC(=N)N)NC(=O)[C@H](CCCNC(=N)N)NC(=O)[C@H]([C@@H](C)CC)NC1=O)C(=O)N[C@@H](C(C)C)C(=O)N(C)[C@@H](Cc1c[nH]c3ccccc13)C(=O)N[C@@H](CC(N)=O)C(=O)N[C@@H](Cc1ccc(O)cc1)C(=O)N2` [compound 413] ({CH2CO}-AVEV[NMeW]NYKIIRRY[NMeY]C-NH2; linker 3-8 via dP; thioether N-15) was 0.1 to 1 µM; that for `CC[C@H](C)[C@@H]1NC(=O)[C@@H]2CCCCNC(=O)[C@H]3CCCN3C(=O)C[C@H](NC(=O)[C@H](C(C)C)NC(=O)[C@H](C)NC(=O)CSC[C@@H](C(N)=O)NC(=O)[C@H](Cc3ccc(O)cc3)N(C)C(=O)[C@H](Cc3ccc(O)cc3)NC(=O)[C@H](CCCNC(=N)N)NC(=O)[C@H](CCCNC(=N)N)NC(=O)[C@H]([C@@H](C)CC)NC1=O)C(=O)N[C@@H](C(C)C)C(=O)N(C)[C@@H](Cc1c[nH]c3ccccc13)C(=O)N[C@@H](CC(N)=O)C(=O)N[C@@H](Cc1ccc(O)cc1)C(=O)N2` [compound 414] ({CH2CO}-AVDV[NMeW]NYKIIRRY[NMeY]C-NH2; linker 3-8 via dP; thioether N-15) was 0.001 to 0.1 µM.
The same measure, in the same setting: the value for `CC[C@H](C)[C@@H]1NC(=O)[C@@H]2CCCNC(=O)CC[C@H](NC(=O)[C@H](C(C)C)NC(=O)[C@H](C)NC(=O)CSC[C@@H](C(N)=O)NC(=O)[C@H](Cc3ccc(O)cc3)N(C)C(=O)[C@H](Cc3ccc(O)cc3)NC(=O)[C@H](CCCNC(=N)N)NC(=O)[C@H](CCCNC(=N)N)NC(=O)[C@H]([C@@H](C)CC)NC1=O)C(=O)N[C@@H](C(C)C)C(=O)N(C)[C@@H](Cc1c[nH]c3ccccc13)C(=O)N[C@@H](CC(N)=O)C(=O)N[C@@H](Cc1ccc(O)cc1)C(=O)N2` [compound 415] ({CH2CO}-AVEV[NMeW]NY[Orn]IIRRY[NMeY]C-NH2; lactam 3-8 (inferred); thioether N-15 (inferred)) was 0.1 to 1 µM; that for `CC[C@H](C)[C@@H]1NC(=O)[C@H](Cc2ccc(O)cc2)NC(=O)[C@H](Cc2ccc(O)cc2)NC(=O)[C@H](CC(N)=O)NC(=O)[C@H](Cc2c[nH]c3ccccc23)N(C)C(=O)[C@H](C(C)C)NC(=O)[C@H](Cc2cccc(Cl)c2)N(C)C(=O)[C@@H]2CCC(=O)N3CCC[C@@H]3C(=O)NCCCC[C@H](NC(=O)[C@H]([C@@H](C)CC)NC1=O)C(=O)N[C@@H](CCCNC(=N)N)C(=O)N[C@@H](Cc1ccc(O)cc1)C(=O)N(C)[C@@H](Cc1ccc(O)cc1)C(=O)N[C@H](C(N)=O)CSCC(=O)N[C@@H](C)C(=O)N2` [compound 416] was 0.001 to 0.1 µM; that for `CC[C@H](C)[C@@H]1NC(=O)[C@H](Cc2ccc(O)cc2)NC(=O)[C@H](Cc2ccc(O)cc2)NC(=O)[C@H](CC(N)=O)NC(=O)[C@H](Cc2c[nH]c3ccccc23)N(C)C(=O)[C@H](C(C)C)NC(=O)[C@H](Cc2cccc(Cl)c2)N(C)C(=O)[C@@H]2CCC(=O)NCC(=O)NCCCC[C@H](NC(=O)[C@H]([C@@H](C)CC)NC1=O)C(=O)N[C@@H](CCCNC(=N)N)C(=O)N[C@@H](Cc1ccc(O)cc1)C(=O)N(C)[C@@H](Cc1ccc(O)cc1)C(=O)N[C@H](C(N)=O)CSCC(=O)N[C@@H](C)C(=O)N2` [compound 417] was 0.001 to 0.1 µM.

These data come from patent US20230203098A1, “HUMAN TRANSFERRIN RECEPTOR BINDING PEPTIDE” (priority 2020, published 2023).
